In patent US20090232838A1, “Ligands of melanocortin receptors” (priority 2005, published 2009):

Key:
hMC3-R = target: T1, hMC3-R (Homo sapiens, UniProt P41968); test: cyclic AMP bioassay, hMC3-R; type: cell-based; details: Table 3A; cAMP in CHO-K1 cells, antagonist potency by Schild analysis; read-out: Kb hMC3-R
T1 construct: expressed in transfected cells; host or cells: CHO-K1
Procedure: (§1) Intracellular cyclic AMP (cAMP) levels were determined by an electrochemiluminescence (ECL) assay (Meso Scale Discovery®, Gaithersburg, Md.; referred to hereinafter as MSD). […] Transgenic CHO-K1 cells stably expressing hMC receptor subtypes 1, 3, 4 or 5 were dispensed at a density of approximately 7,000 cells/well in 384-well Multi-Arrays plates (MSD) containing integrated carbon electrodes and coated with anti-CAMP antibody. Increasing concentrations of the test compounds were added and the cells were incubated for approximately 40 minutes at approximately 37° C. […] At the end of the second incubation period read buffer (Tris-buffered solution containing an ECL co-reactant and Triton X-100 at ph 7.8) was added and the cAMP levels in the cell lysates were immediately determined by ECL detection with a Sector Imager 6000 Reader® (MSD). Data were analyzed using a computer-assisted non-linear regression analysis (XL fit; IDBS) and reported as either an EC50 value or a Kb value.
(§2) The Kb value reflects the potency of an antagonist and is determined by Schild analysis. In brief, concentration-response curves of an agonist are carried out in the presence of increasing concentrations of an antagonist. […] It is calculated by extrapolating the line on a Schild plot to zero on the y-axis.

hMC4-R = target: T2, hMC4-R (Homo sapiens, UniProt P32245); test: cyclic AMP bioassay, hMC4-R; type: cell-based; details: Table 3A; cAMP in CHO-K1 cells, antagonist potency by Schild analysis; read-out: Kb hMC4-R
T2 construct: expressed in transfected cells; host or cells: CHO-K1
T2 sequence (P32245 whole entry): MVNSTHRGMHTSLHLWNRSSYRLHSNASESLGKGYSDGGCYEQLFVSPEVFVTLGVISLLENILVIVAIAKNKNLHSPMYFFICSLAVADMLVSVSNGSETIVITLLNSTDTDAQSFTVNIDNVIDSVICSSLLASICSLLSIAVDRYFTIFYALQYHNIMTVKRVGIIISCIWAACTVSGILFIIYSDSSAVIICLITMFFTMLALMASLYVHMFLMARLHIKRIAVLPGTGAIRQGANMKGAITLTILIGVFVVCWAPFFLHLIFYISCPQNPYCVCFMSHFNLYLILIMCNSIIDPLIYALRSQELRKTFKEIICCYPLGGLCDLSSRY
Procedure: as §1, §2

T1 sequence (P41968 whole entry): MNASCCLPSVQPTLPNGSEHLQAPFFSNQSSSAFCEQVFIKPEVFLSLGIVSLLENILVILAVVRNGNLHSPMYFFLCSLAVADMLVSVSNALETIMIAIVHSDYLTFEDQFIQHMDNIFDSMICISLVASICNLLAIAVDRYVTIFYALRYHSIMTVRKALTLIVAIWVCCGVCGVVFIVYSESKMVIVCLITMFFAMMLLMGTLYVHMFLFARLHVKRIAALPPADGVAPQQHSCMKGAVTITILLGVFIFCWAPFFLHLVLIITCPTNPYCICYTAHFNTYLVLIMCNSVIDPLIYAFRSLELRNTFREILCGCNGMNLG

SMILES | Kb (hMC3-R) [nM] | Kb (hMC4-R) [nM]
CCCC[C@H](NC(C)=O)C(=O)N[C@H]1CC(=O)NCCCC[C@@H](C(=O)N2CCC[C@H]2C(=O)N2CCC[C@H]2C(=O)N[C@@H](CCCCN)C(=O)N[C@@H](CC(=O)O)C(=O)N[C@@H](Cc2ccc(O)cc2)C(=O)NCC(=O)N[C@@H](CCCNC(=N)N)C(=O)N[C@@H](CCCCN)C(=O)N[C@@H](CCCCN)C(=O)N[C@@H](CCCNC(=N)N)C(=O)N[C@@H](CCCNC(=N)N)C(=O)N[C@@H](CCC(N)=O)C(=O)N[C@@H](CCCNC(=N)N)C(=O)N[C@@H](CCCNC(=N)N)C(=O)N[C@@H](CCCNC(=N)N)C(N)=O)NC(=O)[C@H](Cc2c[nH]c3ccccc23)NC(=O)[C@H](CCCNC(=N)N)NC(=O)[C@@H](Cc2ccc3ccccc3c2)NC(=O)[C@H](Cc2c[nH]cn2)NC1=O | 14.1 | 22.8
CCCC[C@H](NC(C)=O)C(=O)N[C@H]1CC(=O)NCCCC[C@@H](C(=O)NCCC(=O)N[C@@H](Cc2ccc(O)cc2)C(=O)NCC(=O)N[C@@H](CCCNC(=N)N)C(=O)N[C@@H](CCCCN)C(=O)N[C@@H](CCCCN)C(=O)N[C@@H](CCCNC(=N)N)C(=O)N[C@@H](CCCNC(=N)N)C(=O)N[C@@H](CCC(N)=O)C(=O)N[C@@H](CCCNC(=N)N)C(=O)N[C@@H](CCCNC(=N)N)C(=O)N[C@@H](CCCNC(=N)N)C(N)=O)NC(=O)[C@H](Cc2c[nH]c3ccccc23)NC(=O)[C@H](CCCNC(=N)N)NC(=O)[C@@H](Cc2ccc3ccccc3c2)NC(=O)[C@H](Cc2c[nH]cn2)NC1=O | 220 | 4.07
CC(=O)N[C@H]1CSSC[C@@H](C(=O)N2CCC[C@H]2C(=O)N2CCC[C@H]2C(=O)N[C@@H](CCCCN)C(=O)N[C@@H](CC(=O)O)C(=O)N[C@@H](Cc2ccc(O)cc2)C(=O)NCC(=O)N[C@@H](CCCNC(=N)N)C(=O)N[C@@H](CCCCN)C(=O)N[C@@H](CCCCN)C(=O)N[C@@H](CCCNC(=N)N)C(=O)N[C@@H](CCCNC(=N)N)C(=O)N[C@@H](CCC(N)=O)C(=O)N[C@@H](CCCNC(=N)N)C(=O)N[C@@H](CCCNC(=N)N)C(=O)N[C@@H](CCCNC(=N)N)C(N)=O)NC(=O)CNC(=O)[C@H](Cc2c[nH]c3ccccc23)NC(=O)[C@H](CCCNC(=N)N)NC(=O)[C@@H](Cc2ccc3ccccc3c2)NC(=O)[C@H](Cc2c[nH]cn2)NC(=O)[C@H](CCC(=O)O)NC1=O | 233 | 26
CCCC[C@H](N)C(=O)N[C@H]1CC(=O)NCCCC[C@@H](C(=O)NCCC(=O)N[C@@H](Cc2ccc(O)cc2)C(=O)NCC(=O)N[C@@H](CCCNC(=N)N)C(=O)N[C@@H](CCCCN)C(=O)N[C@@H](CCCCN)C(=O)N[C@@H](CCCNC(=N)N)C(=O)N[C@@H](CCCNC(=N)N)C(=O)N[C@@H](CCC(N)=O)C(=O)N[C@@H](CCCNC(=N)N)C(=O)N[C@@H](CCCNC(=N)N)C(=O)N[C@@H](CCCNC(=N)N)C(N)=O)NC(=O)[C@H](Cc2c[nH]c3ccccc23)NC(=O)[C@H](CCCNC(=N)N)NC(=O)[C@@H](Cc2ccc3ccccc3c2)NC(=O)[C@H](Cc2c[nH]cn2)NC1=O | 207 | 18.5
CCCC[C@H](NC(=O)COCCOCCNC(=O)[C@H](CCCNC(=N)N)NC(=O)[C@H](CCCNC(=N)N)NC(=O)[C@H](CCCNC(=N)N)NC(=O)[C@H](CCC(N)=O)NC(=O)[C@H](CCCNC(=N)N)NC(=O)[C@H](CCCNC(=N)N)NC(=O)[C@H](CCCCN)NC(=O)[C@H](CCCCN)NC(=O)[C@H](CCCNC(=N)N)NC(=O)CNC(=O)[C@@H](N)Cc1ccc(O)cc1)C(=O)N[C@H]1CC(=O)NCCCC[C@@H](C(N)=O)NC(=O)[C@H](Cc2c[nH]c3ccccc23)NC(=O)[C@H](CCCNC(=N)N)NC(=O)[C@@H](Cc2ccc3ccccc3c2)NC(=O)[C@H](Cc2c[nH]cn2)NC1=O | 395 | 16.8
